Measurements: patent US11345701B1, “KRAS mutant protein inhibitors” (Jacobio Pharmaceuticals Co., Ltd., priority 2021, dated 2022)
Read-outs that look alike come from different tables or passages of the source.

Tests used:
[1] = biological target: HIS-KRAS(G12C) (Homo sapiens (Human), UniProt P01116, G12C); assay: SOS1 catalyzed nucleotide exchange assay (TR-FRET); assay type: biochemical; details: GDP-loaded HIS-KRAS(G12C), 1 hour pre-incubation, TR-FRET
Experimental: TR-FRET signals were then read on Tecan Spark multimode microplate reader. […] TR-FRET ratios for each individual wells were calculated by equation: TR-FRET ratio=(Signal F515/Signal F486)*10000. Then the data were analyzed using a 4-parameter logistic model to calculate IC50 values.

[2] = system: NCI-H358 cells expressing KRAS G12C mutant protein; assay: Phospho-ERK1/2(THR202/TYR204) HTRF assay; assay type: cell-based; details: 2 hours incubation, read-out: p-ERK IC50
Experimental: The NCI-H358 cells in culture medium were seeded in 96-well plates at a concentration of 40,000 cells/well and then put in a 37° C./5% CO2 cell incubator to incubate overnight. […] After 2 hours incubation in a 37° C./5% CO2 cell incubator, the assay medium in 96-well plates was removed, then 50 μL of 1× blocking reagent-supplemented lysis buffer (Cisbio) was added and the plates were incubated at 25° C. for 45 min with shaking. 10 μL of cell lysates from the 96-well plates were transferred to a 384-well plate (Greiner) containing 2.5 μL/well HTRF® pre-mixed antibodies (Cisbio 64AERPEH). Incubate 4 hours at 25° C. and then read HTRF signals on Tecan Spark multimode microplate reader. The data were analyzed using a 4-parameter logistic model to calculate IC50 values.

[3] = Mouse pharmacokinetic study; assay type: in vivo, Balb/c mouse
Experimental: The purpose of this study was to evaluate the pharmacokinetic properties of compounds in Balb/c mouse (♀) following single dose administration. The day before administration, mice were fasted overnight and free access to water. Six mice were needed for each compound and the six mice were divided into two groups (n=3/group), group A and group B. Mice in group A were treated with a single 3 mg/kg dose of compound (iv). Mice in group B were treated with a single 10 mg/kg dose of compound (po). For each mouse in group A, blood samples were collected at pre-dose, and at the time point of 0.083, 0.25, 0.5, 1, 2, 4, 6, 8 and 24 h post-dose. For each mouse in group B, blood samples were collected at pre-dose, and at the time point of 0.25, 0.5, 1, 2, 3, 4, 6, 8 and 24 h post-dose. Blood samples were placed on ice until centrifugation to obtain plasma samples. The plasma samples were stored at −80° C. until analysis. The concentration of compound in plasma samples was determined using a LC-MS/MS method.

HIS-KRAS(G12C), sequence (P01116 other isoform, or with tags, fused parts or gaps G12C): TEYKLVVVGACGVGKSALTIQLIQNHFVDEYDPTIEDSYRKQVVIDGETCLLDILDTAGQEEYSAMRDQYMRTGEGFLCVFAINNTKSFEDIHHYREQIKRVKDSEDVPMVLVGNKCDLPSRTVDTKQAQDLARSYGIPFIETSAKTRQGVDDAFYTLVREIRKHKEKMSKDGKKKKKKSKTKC

Structure (SMILES) | IC50 [1] [µM] | IC50 [2] [µM] | IC50 ([2]; Homo sapiens, NCI-H358, 2 h) [µM] | Pharmacokinetic properties in words ([3]; mouse model, 3 mg/kg iv and 10 mg/kg po) | clearance ([3]; plasma, Balb/c mouse (female), 3 mg/kg, iv) [mL/min/kg] | Vd ([3]; plasma, Balb/c mouse (female), 3 mg/kg, iv, read-out: Vss) [L/kg] | AUC(0-t) ([3]; plasma, Balb/c mouse (female), 10 mg/kg, po, read-out: AUC0-24 h) [ng·h/mL] | Cmax ([3]; plasma, Balb/c mouse (female), 10 mg/kg, po, read-out: Cmax) [ng/mL] | bioavailability ([3]; plasma, Balb/c mouse (female), 10 mg/kg, po, read-out: Oral BA (F %)) [%]
C=CC(=O)N1[C@H](C)CN(c2nc(=O)n(-c3c(C)ccnc3C(C)C)c3nc(-c4c(N)c(F)c(F)c(F)c4F)c(F)cc23)C[C@@H]1C (single isomer, unassigned) [Compound 5-2] | 0.0961 | 0.774 | – | – | – | – | – | – | –
C=CC(=O)N1[C@H](C)CN(c2nc(=O)n(-c3c(C)ccnc3C(C)C)c3nc(-c4c(F)c(F)c(F)c(N)c4Cl)c(F)cc23)C[C@@H]1C (single isomer, unassigned) [Compound 7-1] | 0.00654 | – | 0.0367 | – | – | – | – | – | –
C=CC(=O)N1CCN(c2nc(=O)n(-c3c(C)ccnc3C(C)C)c3nc(-c4c(N)c(F)c(F)c(F)c4F)c(F)cc23)CC1 (single isomer, unassigned) [Compound 3-1, 4-(4-acryloylpiperazin-1-yl)-7-(2-amino-3,4,5,6-tetrafluorophenyl)-6-fluoro-1-(2-isopropyl-4-methylpyridin-3-yl)pyrido[2,3-d]pyrimidin-2(1H)-one] | 0.00314 | – | 0.0254 | – | – | – | – | – | –
C=CC(=O)N1CCN(c2nc(=O)n(-c3c(C)ccnc3C(C)C)c3nc(-c4c(N)c(F)c(F)c(F)c4F)c(F)cc23)[C@@H](C)C1 [Compound 2, 4-((S)-4-acryloyl-2-methylpiperazin-1-yl)-7-(2-amino-3,4,5,6-tetrafluorophenyl)-6-fluoro-1-(2-isopropyl-4-methylpyridin-3-yl)pyrido[2,3-d]pyrimidin-2(1H)-one] | 0.00204 | – | 0.0307 | good pharmacokinetic properties | 65.2 | 2.31 | 1150 | 1440 | 44.7
